Measurements as given in patent publication US5585360A, “Peptide compounds derived from boronic acid” (Adir et Compagnie, priority 1994, dated 1996).

Experiments:
[1] = system: thrombin time (TT), plasma; assay: Anticoagulant activity, thrombin time (TT) in human plasma; type: biochemical, man; details: human platelet-depleted plasma, 2 min at 37° C.
Description: (§1) In the presence of a standard quantity of thrombin or of calcium thromboplastin a normal plasma coagulates in a defined and constant time, called thrombin time (TT) and prothrombin time (PT) respectively. Venous blood is collected at the elbow bend into a trisodium citrate (0.109M) solution. A plasma depleted in platelets is obtained by centrifuging the blood samples (3000 g, 15 minutes). The thrombin time is obtained with the Thrombin Prest (Stago) reagent and the prothrombin time with the Neoplastine (Stago) reagent. They are determined automatically by employing an ST4 (Stago) coagulometer. […] In these conditions the TT obtained in the control plasma is of the order of 20 seconds in man, and PT of the order of 12 seconds. The activity of an inhibitor is evaluated by its ability to lengthen these times when compared with the control. In these conditions the compounds of the invention permit a lengthening of the thrombin time and of the prothrombin time of 50-fold and more. The effect of the inhibitors is measured and the concentration which doubles the coagulation time (CTT2 for the thrombin time and CPT2 for the prothrombin time) is determined.

[2] = system: prothrombin time (PT), plasma; assay: Anticoagulant activity, prothrombin time (PT) in human plasma; type: biochemical, man; details: human platelet-depleted plasma, 2 min at 37° C., calcium thromboplastin
Description: as §1

human thrombin = target: T1, human thrombin (Homo sapiens, UniProt P00734); assay: Inhibition of thrombin (fibrinogen substrate, fibrin formation at 405 nm); type: biochemical; details: for IC50: thrombin 0.7 nM, preincubation 20° C. 10 minutes, fibrinogen, read-out: CI50 Thrombin
T1 construct: human thrombin (Sigma, specific activity 3220 NIHU/mg); purchased Sigma
Description: In order to evaluate in vitro the inhibiting activity of the boro-Arginic products on human thrombin (Sigma, specific activity 3220 NIHU/mg), purified human fibrinogen ([…], Enzyme Research Laboratories) was added to a given quantity of thrombin (0.7 nM) previously incubated with or without the inhibitor to be tested (20° C., 10 minutes).
(§2) Inhibitors, enzymes and substrates are diluted in the same buffer ([…] phosphate buffer, pH 7.4, containing 0.12M of sodium chloride and 0.05% of bovine albumin serum) and then distributed into a microplate made of polystyrene in a volume of 50 1.
(§3) The fibrin formed by the thrombin or the para-nitroanilide released by the action of the serine protease are measured spectrophotometrically at 405 nm after 5 or 30 minutes' reaction at 20° C. respectively.

purified human plasmin = target: T2, purified human plasmin (Homo sapiens, UniProt P00747); assay: Inhibition of plasmin (pNA substrate S 2403); type: biochemical; details: enzyme 2 nM, 30 minutes at 20° C.; read-out: CI50 Plasmin
T2 construct: purified human plasmin (2 nM, Stago); purchased Stago
T2 sequence (P00747 581-810 limits assumed): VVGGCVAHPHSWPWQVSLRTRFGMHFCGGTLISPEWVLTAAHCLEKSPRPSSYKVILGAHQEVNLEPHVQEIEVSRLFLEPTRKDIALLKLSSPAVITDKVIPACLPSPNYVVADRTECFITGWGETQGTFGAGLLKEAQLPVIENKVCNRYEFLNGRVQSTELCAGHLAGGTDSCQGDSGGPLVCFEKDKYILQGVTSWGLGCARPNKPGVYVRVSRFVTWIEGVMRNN
T2 sequence (P00747 97-580 partner limits assumed): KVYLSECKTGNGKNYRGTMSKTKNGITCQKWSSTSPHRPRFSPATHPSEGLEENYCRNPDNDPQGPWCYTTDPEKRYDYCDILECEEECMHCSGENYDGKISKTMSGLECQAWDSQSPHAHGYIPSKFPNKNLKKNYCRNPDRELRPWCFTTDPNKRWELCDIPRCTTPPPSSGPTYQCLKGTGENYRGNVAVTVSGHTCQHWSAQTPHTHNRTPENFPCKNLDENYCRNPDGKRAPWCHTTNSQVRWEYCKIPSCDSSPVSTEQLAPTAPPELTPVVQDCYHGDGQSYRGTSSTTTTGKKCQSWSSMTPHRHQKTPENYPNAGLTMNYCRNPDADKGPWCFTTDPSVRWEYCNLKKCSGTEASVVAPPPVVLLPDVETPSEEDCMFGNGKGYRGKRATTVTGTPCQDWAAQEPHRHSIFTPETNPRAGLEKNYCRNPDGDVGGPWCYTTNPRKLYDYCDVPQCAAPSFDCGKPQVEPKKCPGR
Description: (§4) In order to evaluate in vitro the selectivity of these products in respect of different serine proteases of fibrinolysis and coagulation, the same protocol is applied to purified human plasmin (2 nM, Stago), to purified human activated protein C (2 nM, Stago), to purified human activated factor X (2 nM, Calbiochem), to the tissue activator of plasminogen (2 nM, Calbiochem), to purified human urokinase (2 nM, Choay), to purified human plasma kallikrein (2 nM, Calbiochem), using as substrates different peptide para-nitroanilides: <Glu-Phe-Lys-pNA (0.50mM, S 2403, Kabi) for plasmin, N-Cbo-Arg-Gly-Arg-pNA (0.39 mM, S 2765, Kabi) for the factor Xa<Glu-Pro-Arg-pNA (0.52 mM, S 2366, Kabi) for activated protein C, H-D-Pro-Phe-Arg-pNA (0.45 mM, S 2302, Kabi) for kallikrein, H-(D)-Ile-Pro-Arg-pNA (0.48 mM, S 2288, Kabi) for the tissue activator of plasminogen and <Glu-Gly-Arg-pNA (0.56 mM, S 2444, Kabi) for urokinase.
as §2, §3

[3] = target: T3, tissue activator of plasminogen (Homo sapiens, UniProt P00750); assay: Inhibition of tPA (pNA substrate S 2288); type: biochemical; details: enzyme 2 nM, 30 minutes at 20° C.; read-out: CI50 tPA
T3 construct: purchased Calbiochem
T3 sequence (P00750 23-562 limits assumed): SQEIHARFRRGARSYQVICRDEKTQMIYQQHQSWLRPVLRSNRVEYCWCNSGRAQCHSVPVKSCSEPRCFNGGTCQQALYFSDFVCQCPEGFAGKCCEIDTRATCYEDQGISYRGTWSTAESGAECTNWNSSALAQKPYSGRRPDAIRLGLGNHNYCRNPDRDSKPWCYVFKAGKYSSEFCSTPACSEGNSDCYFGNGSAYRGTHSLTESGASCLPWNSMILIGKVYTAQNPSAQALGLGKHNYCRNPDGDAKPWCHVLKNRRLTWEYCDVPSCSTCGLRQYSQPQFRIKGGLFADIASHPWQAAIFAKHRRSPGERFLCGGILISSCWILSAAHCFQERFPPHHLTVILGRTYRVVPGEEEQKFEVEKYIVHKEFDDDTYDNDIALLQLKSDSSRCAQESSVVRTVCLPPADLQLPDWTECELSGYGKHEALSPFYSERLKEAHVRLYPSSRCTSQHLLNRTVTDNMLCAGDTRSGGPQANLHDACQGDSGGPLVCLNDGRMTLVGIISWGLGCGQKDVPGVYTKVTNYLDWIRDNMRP
Description: as §4, §2, §3

purified human urokinase = target: T4, purified human urokinase (Homo sapiens, UniProt P00749); assay: Inhibition of urokinase (pNA substrate S 2444); type: biochemical; details: enzyme 2 nM, 30 minutes at 20° C.; read-out: CI50 Urokinase
T4 construct: purchased Choay
Description: as §4, §2, §3

[4] = target: T5, purified human activated factor X (Homo sapiens, UniProt P00742); assay: Inhibition of factor Xa (pNA substrate S 2765); type: biochemical; details: enzyme 2 nM, 30 minutes at 20° C.; read-out: CI50 FXa
T5 construct: purchased Calbiochem
T5 sequence (P00742 235-488 limits assumed): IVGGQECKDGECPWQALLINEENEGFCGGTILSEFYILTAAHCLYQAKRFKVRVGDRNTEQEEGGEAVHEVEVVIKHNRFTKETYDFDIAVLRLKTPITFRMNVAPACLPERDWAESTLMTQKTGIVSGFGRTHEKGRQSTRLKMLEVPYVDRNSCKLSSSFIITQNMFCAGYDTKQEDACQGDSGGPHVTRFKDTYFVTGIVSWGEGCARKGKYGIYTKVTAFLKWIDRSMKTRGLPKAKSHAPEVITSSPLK
T5 sequence (P00742 41-179 partner limits assumed): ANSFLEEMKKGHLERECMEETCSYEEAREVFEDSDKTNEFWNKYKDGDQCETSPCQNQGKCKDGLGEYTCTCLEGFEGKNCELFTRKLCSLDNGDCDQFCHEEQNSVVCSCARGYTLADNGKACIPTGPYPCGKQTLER
Description: as §4, §2, §3

[5] = target: T6, purified human plasma kallikrein (Homo sapiens, UniProt P03952); assay: Inhibition of plasma kallikrein (pNA substrate S 2302); type: biochemical; details: enzyme 2 nM, 30 minutes at 20° C.; read-out: CI50 Kalli
T6 construct: purified human plasma kallikrein (2 nM, Calbiochem); purchased Calbiochem
T6 sequence (P03952 391-638 limits assumed): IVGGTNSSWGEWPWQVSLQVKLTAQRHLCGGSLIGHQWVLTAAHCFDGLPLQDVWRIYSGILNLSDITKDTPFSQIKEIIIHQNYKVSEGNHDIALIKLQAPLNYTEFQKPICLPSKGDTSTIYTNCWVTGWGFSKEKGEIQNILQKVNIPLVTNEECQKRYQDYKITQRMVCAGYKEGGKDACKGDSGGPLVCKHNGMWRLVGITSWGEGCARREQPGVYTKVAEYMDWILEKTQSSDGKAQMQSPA
T6 sequence (P03952 20-390 partner limits assumed): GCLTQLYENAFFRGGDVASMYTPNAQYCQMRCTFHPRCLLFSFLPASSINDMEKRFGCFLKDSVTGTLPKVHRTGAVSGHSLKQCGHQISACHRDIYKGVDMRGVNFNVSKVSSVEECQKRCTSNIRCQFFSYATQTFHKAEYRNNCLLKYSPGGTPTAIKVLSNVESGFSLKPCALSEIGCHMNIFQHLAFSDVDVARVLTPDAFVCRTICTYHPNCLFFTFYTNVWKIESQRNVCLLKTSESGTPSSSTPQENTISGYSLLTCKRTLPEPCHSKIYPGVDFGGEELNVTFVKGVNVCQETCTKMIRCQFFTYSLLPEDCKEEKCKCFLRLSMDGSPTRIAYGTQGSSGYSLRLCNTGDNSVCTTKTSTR
Description: as §4, §2, §3

[6] = target: T7, purified human activated protein C (Homo sapiens, UniProt P04070); assay: Inhibition of activated protein C (pNA substrate S 2366); type: biochemical; details: enzyme 2 nM, 30 minutes at 20° C.; read-out: CI50 PCa
T7 construct: purchased Stago
T7 sequence (P04070 212-450 limits assumed): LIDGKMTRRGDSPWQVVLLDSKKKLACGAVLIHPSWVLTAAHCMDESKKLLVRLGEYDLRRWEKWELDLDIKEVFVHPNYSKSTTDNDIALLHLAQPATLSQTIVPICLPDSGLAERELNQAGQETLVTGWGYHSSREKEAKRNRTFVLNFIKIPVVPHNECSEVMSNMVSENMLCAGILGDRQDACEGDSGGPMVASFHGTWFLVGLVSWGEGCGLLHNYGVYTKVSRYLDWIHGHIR
T7 sequence (P04070 43-197 partner limits assumed): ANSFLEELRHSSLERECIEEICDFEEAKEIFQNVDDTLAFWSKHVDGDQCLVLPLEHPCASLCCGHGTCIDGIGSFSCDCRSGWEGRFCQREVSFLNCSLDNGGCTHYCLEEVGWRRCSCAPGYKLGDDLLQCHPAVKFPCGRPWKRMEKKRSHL
Description: as §4, §2, §3

[7] = system: activated cephalin time (ACT); assay: Anticoagulant activity ex vivo, i.v. route in the dog (ACT); details: for ACT increase index: 0.5 mg/kg i.v.
From the text: The dogs are left breathing freely.

platelets [8] = assay: Number of platelets after i.v. administration in the dog; details: 0.25 mg/kg i.v.
Description: Fasted dogs are anaesthetized with pentobarbital (30 mg/kg, i.v.). A femoral artery and a saphenous vein are exposed and catheterized. The dogs are left breathing freely.

[9] = system: activated cephalin time (ACT); assay: Anticoagulant activity ex vivo, i.v. route in the rat (ACT); details: 0.25 mg/kg i.v.
Description: OFA rats, fasted or not, are anaesthetized with pentobarbital (60 mg/kg, i.p.). The carotid artery and the jugular vein are exposed and catheterized. The catheters are purged with citrated physiological saline (1/40). After installation of the catheters a sampling of 1.5 cm^3 of arterial blood is performed on 0.109 M citrate (1/9).
30 minutes later the product to be tested is administered i.v. in a volume of 1 ml.
Arterial samplings (1.5 ml) are then performed at 1 minute 30, 5, 15, 30 and 60 minutes.
At each sampling 1.5 ml of citrated physiological saline is reinjected into the animal via the carotid.
The tubes of blood are centrifuged for 5 minutes at 3000 g (preparation of the plasma).
100 1 of plasma are incubated with 100 1 of activated cephalin. The time of appearance of the coagulation phenomenon is measured after addition of 100 1 of calcium.
The results are reproduced in the following table and show the indices of increase in the coagulation time.

thrombin time = assay: Anticoagulant activity ex vivo, oral route in the dog (thrombin time); details: 2.5 mg/kg oral
Description: (§5) After a blood sample has been taken, the products are administered orally. At specified times after the treatment the blood is sampled intravenously. The plasma is prepared, the platelets are counted and the thrombin time test is carried out.
(§6) The activity is durable (4 hours).

platelets [10] = assay: Number of platelets after oral administration in the dog; type: in vivo; details: 2.5 mg/kg oral
Description: as §5, §6

| Molecule | CTT2 (concentration which doubles the thrombin time) [1] | CTP2 (concentration which doubles the prothrombin time) [2] | selectivity for thrombin versus other serine proteases, compared with DUP 714 (human thrombin; comparison of CI50 values) | IC50 (human thrombin) | IC50 (purified human plasmin) | IC50 [3] | IC50 (purified human urokinase) | IC50 [4] | IC50 [5] | IC50 [6] | other results |
| --- | --- | --- | --- | --- | --- | --- | --- | --- | --- | --- | --- |
| 1-(R)-{[Ac-(R)Phe-(N-cyclopentyl)Gly]amino}-4-(1N-methylguanidino)butylboronic Acid Acetate [Example 8] | 0.30 µM | 3.06 µM | much more selective inhibitors of thrombin than DUP 714 | 0.00074 µM | > 33 µM | 0.395 µM | > 33 µM | > 330 µM | 1.08 µM | 0.458 µM |  |
| CC(=O)N[C@H](Cc1ccccc1)C(=O)N1CCC[C@H]1C(=O)N[C@@H](CCCN=C(N)N)B(O)O [DUP 714, Ac-(D)Phe-Pro-Arg-boronic acid, reference compound] | 0.18 µM | 2.63 µM |  |  | 0.024 µM | 0.0053 µM | 0.022 µM | 0.081 µM | 0.0068 µM | 0.015 µM | increase in the ACT ([7]; 0.25 mg/kg i.v.): comparable with that obtained with Example 2 in a dosage of 0.5 mg/kg; thrombopenia (platelets [8]): 20% |
| CC(=O)N[C@H](Cc1ccccc1)C(=O)N(CC(=O)N[C@@H](CCCSC(=N)N)B(O)O)C1CCCC1.CC(=O)O [Example 2, 1-(R )-{[Ac-(R)Phe-(N-cyclopentyl)Gly]amino}-4-(isothioureido)butylboronic Acid Acetate] | 0.20 µM | 2.29 µM | much more selective inhibitors of thrombin than DUP 714 | 0.00059 µM | 1.04 µM | 0.108 µM | 2.5 µM | > 100 µM | 0.164 µM | 0.593 µM | thrombin inhibition compared with DUP 714 (human thrombin; comparison of CI50 values): as powerfully as DUP 7 14; index of increase in the coagulation time (ACT) ([9]; 1.5 minutes): 2.6; index of increase in the coagulation time (ACT) ([9]; 5 minutes): 1.8; index of increase in the coagulation time (ACT) ([9]; 15 minutes): 1.2; index of increase in the coagulation time (ACT) ([9]; 30 minutes): 1.2; index of increase in the coagulation time (ACT) ([9]; 60 minutes): 1.1; ACT increase index ([7]; 1.5 minutes): 9.6; ACT increase index ([7]; 5 minutes): 3.6; ACT increase index ([7]; 15 minutes): 1.9; ACT increase index ([7]; 30 minutes): 1.4; ACT increase index ([7]; 60 minutes): 1.1; duration of activity (TT increase) (thrombin time): 4 h; increase in the TT (thrombin time; 0.5 hours): 1.1; increase in the TT (thrombin time; 1 hour): 1.6; increase in the TT (thrombin time; 2 hours): 1.5; increase in the TT (thrombin time; 4 hours): 1.1; modification of the number of platelets (platelets [10]): without modification of the number of platelets |
| CC(=O)NC(Cc1ccccc1)C(=O)N(CC(=O)N[C@@H](CCCSC(=N)N)B(O)O)C1CCCCC1.CC(=O)O (stereo partly drawn) [Example 4, 1-(R)-{[Ac-(R,S)Phe-(N-cyclohexyl)Gly]amino}-4-(isothioureido) butylboronic Acid Acetate] | 0.34 µM | 2.44 µM |  |  |  |  |  |  |  |  |  |
| CC(=O)N[C@H](Cc1ccccc1)C(=O)N(CC(=O)N[C@@H](CCCSC(=N)N)B(O)O)C1CCCCC1.CC(=O)O [Example 6, 1-(R)-{[Ac-(R)Phe-(N-cyclohexyl)Gly]amino}-4-(isothioureido)butylboronic Acid Acetate] | 0.29 µM | 2.92 µM | much more selective inhibitors of thrombin than DUP 714 | 0.00175 µM | 1.26 µM | 0.092 µM | 1.51 µM | 10.8 µM | 0.181 µM | 0.467 µM |  |
